Activity calls are given as the source filed them. The rule behind the calls is not given here.
What was measured:
Assay type in all cases: cell-based
Pyruvate kinase PKM [1] = target: T1, Pyruvate kinase PKM (Homo sapiens, UniProt P14618); experiment: Activation of PKM2 in human CAL-27 cells assessed as increased in TPI1 activity at 52 nM measured after 3 hrs; conditions: filed as activator
Target sequence in this assay (P14618 2-531 limits assumed): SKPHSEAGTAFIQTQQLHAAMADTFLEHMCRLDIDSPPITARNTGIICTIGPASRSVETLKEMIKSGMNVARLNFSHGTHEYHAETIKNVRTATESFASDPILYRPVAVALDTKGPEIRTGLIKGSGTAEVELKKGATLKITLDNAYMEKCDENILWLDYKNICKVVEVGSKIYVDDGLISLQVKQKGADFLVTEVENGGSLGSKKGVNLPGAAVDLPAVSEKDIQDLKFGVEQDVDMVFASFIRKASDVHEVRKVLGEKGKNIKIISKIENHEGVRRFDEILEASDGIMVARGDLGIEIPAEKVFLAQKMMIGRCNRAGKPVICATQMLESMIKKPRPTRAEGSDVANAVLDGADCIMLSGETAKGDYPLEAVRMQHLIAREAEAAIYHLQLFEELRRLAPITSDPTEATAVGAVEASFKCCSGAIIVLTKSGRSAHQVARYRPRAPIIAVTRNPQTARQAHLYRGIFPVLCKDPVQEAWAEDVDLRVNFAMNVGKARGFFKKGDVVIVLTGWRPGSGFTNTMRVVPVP

Pyruvate kinase PKM [2] = target: T1, Pyruvate kinase PKM; experiment: Activation of PKM2 in human CAL-27 cells assessed as decrease in GSH level at 52 nM; conditions: filed as activator
Target sequence in this assay (P14618 2-531 limits assumed): as above

Pyruvate kinase PKM [3] = target: T1, Pyruvate kinase PKM; experiment: Activation of PKM2 in human CAL-27 cells measured after 3 hrs
Pyruvate kinase PKM [4] = target: T1, Pyruvate kinase PKM; experiment: Activation of PKM2 in human CAL-27 cells assessed as decrease in NADP+/NADPH ratio at 12.5 to 50 nM; conditions: filed as activator, dose 12.5-50 nM
Target sequence in this assay (P14618 2-531 limits assumed): as above

Pyruvate kinase PKM [5] = target: T1, Pyruvate kinase PKM; experiment: Activation of PKM2 in human CAL-27 cells assessed as decrease in lactate levels at 12.5 to 50 nM; conditions: filed as activator, dose 12.5-50 nM
Target sequence in this assay (P14618 2-531 limits assumed): as above

Pyruvate kinase PKM [6] = target: T1, Pyruvate kinase PKM; experiment: Activation of PKM2 in human CAL-27 cells assessed as decrease in GSH level at 12.5 to 50 nM; conditions: filed as activator, dose 12.5-50 nM
Target sequence in this assay (P14618 2-531 limits assumed): as above

Pyruvate kinase PKM [7] = target: T1, Pyruvate kinase PKM; experiment: Activation of PKM2 in human CAL-27 cells assessed as increased in TPI1 activity at 12.5 to 50 nM measured after 3 hrs; conditions: filed as activator, dose 12.5-50 nM
Target sequence in this assay (P14618 2-531 limits assumed): as above

SMILES	Activity (Pyruvate kinase PKM [1])	Activity (Pyruvate kinase PKM [2])	AC50 (Pyruvate kinase PKM [3]) [µM]	Activity (Pyruvate kinase PKM [4])	Activity (Pyruvate kinase PKM [5])	Activity (Pyruvate kinase PKM [6])	Activity (Pyruvate kinase PKM [3]; filed as activator, dose 10-100 nM, DDE = dose-dependent effect)	Activity (Pyruvate kinase PKM [7])
Nc1cccc(S(=O)(=O)N2CCCN(S(=O)(=O)c3ccc4c(c3)OCCO4)CC2)c1	Active	Active	0.052	–	–	–	–	–
CCOC(=O)/C(=C\c1ccc(B(O)O)cc1)C(=O)c1sc(Nc2ccc(Cl)cc2)nc1N(C)C	–	–	0.05	Active	Active	Active	Dde	Active

Reference: ChEMBL document CHEMBL5131435, “Boronic acid derivative activates pyruvate kinase M2 indispensable for redox metabolism in oral cancer cells” (Bioorg Med Chem Lett, 2022)
